“Also recorded” adds a separate entry of the source.

In the assay the test system is CD-1 mice. Briefly: Forced swim test in mice. Format: in vivo. The settings on record: administered 30 min before test. Here is the method:
All studies were performed according to the guidelines of the European Community Council (Directive 86/609/EEC) and were approved by the Ethical Committee of the Institute of Pharmacology (88/2016, 05/31/2016). The experiments were performed on male CD-1 mice (23–40 g). The animals were kept at room temperature (21 ± 2 °C) on a natural day-night cycle (March–October) and housed under standard laboratory conditions. They had free access to food and tap water before the experiment. Each experimental group consisted of 6–8 animals/dose. All the animals were used only once. 8-Hydroxy-2-(di-n-propylamino)tetralin hydro-bromide (8-OH-DPAT, Research Biochemical Inc.) was used as aqueous solution. Compounds 6a and 7g were suspended in a 10% aqueous solution of dimethyl sulphoxide (DMSO). Vehicle group was administered as 10% aqueous solution of dimethyl sulphoxide (DMSO). […] The obtained data were analyzed by Dunnett’s test (one drug administration) or by the Newman–Keuls test (two drugs administrations). Forced swim test: the obtained data was evaluated by one-way analysis of variance (ANOVA) followed by the Dunnett’s multiple comparisons test: p < 0.05 was considered significant.
The forced swim test (FST) was carried out according to the method of Porsolt at al.. […] After the first 2 min adaptation period, the total duration of immobility was measured during the last 4 min test. […]

Take `O=c1c(-c2ccccc2)c2ccccn2c(=O)n1CCCCN1CCC(c2noc3cc(F)ccc23)CC1` [Compound 6a, 4-Phenyl-2-{4-[4-(6-fluoro-1,2-benzoxazol-3-yl)-1-piperidyl]butyl}-pyrido[1,2-c]pyrimidine-1,3-dione]: the “Effect in the forced swimming test” value is reported as “inactivity; also recorded: ineffective”.

The values are drawn from publication PMC7956643, “Synthesis of Novel Pyrido[1,2-c]pyrimidine Derivatives with 6-Fluoro-3-(4-piperidynyl)-1,2-benzisoxazole Moiety as Potential SSRI and 5-HT1A Receptor Ligands” (International Journal of Molecular Sciences, 2021).
